Assay: plasma pharmacokinetics, non‐compartmental analysis
Type: in vivo, human
Conditions: Day 1 in Cycle 1 or Day 1 in Cycle 2; data not shown
Description: In addition, trough plasma concentration (C trough) was measured on Day 7 in Cycle 0, and Day 1 in Cycles 1 and 2.
TEAEs were tabulated by system organ class (SOC) and preferred term (PT). For the other safety and PK endpoints, continuous data were described by mean and standard deviation (SD), median and range, and categorical data were summarized by frequency. The proportionality of the PK parameters, C max and AUC10h, was evaluated using a power model (see Table 4). For the efficacy endpoints, best overall response was tabulated as a frequency table, and the time‐to‐event data such as duration of response, PFS, and OS was evaluated using Kaplan–Meier method. All analyses were conducted using SAS® Version 9.4 (SAS Institute).

## COc1cc2ncnc(Nc3ccc(F)c(Cl)c3)c2cc1OCCCN1CCOCC1 [gefitinib]
  mean C max and AUC among cohorts: no specific pattern was observed

Source: article PMC10067098 (Cancer Medicine, 2023)
